Reference: patent publication US11952365B2, “Anti-viral compounds” (Aligos Therapeutics, Inc., priority 2020, dated 2024)
Where two headings read alike, the source gives them in different places.

Key:
[1] = biological target: T1, human cathepsin L (Homo sapiens, UniProt P07711); assay: cathepsin L assay; assay type: biochemical; conditions: 10 pM human cathepsin L, Z-FR-AMC 2 μM, class symbols
T1 construct: purchased R&D Systems
Protocol: For the cathepsin L assay, 10 pM of human cathepsin L (R&D Systems; Minneapolis, MN) was preincubated for 30 mins with test compounds. Reactions were initiated by the addition of a peptide substrate Z-FR-AMC (final concentration 2 μM, Anaspec; Fremont, CA). Fluorescence was measured at 2-minute intervals for 30 mins using a 355/460 excitation/emission filter module on an Envision plate reader (Perkin Elmer; Waltham, MA). The IC50 values were calculated for each assay by fitting the curves using a four-parameter equation in GraphPad Prism.

[2] = system: human beta-coronavirus OC43; assay: microbe, parasite or virus in culture; assay type: cell-based; conditions: Betacoronavirus 1, OC43, HeLa, 144 h, OC43 in HeLa cells, 6 days at 33° C., read-out: EC50
[3] = biological target: HRV3C (Human rhinovirus 14, UniProt P03303); assay: HRV3C protease assay (duplex, SAMDI-MS); assay type: biochemical, HRV; conditions: 30 mins preincubation
Protocol: Protease assays were performed in 384-well low volume polypropylene microtiter plates at ambient temperature. For the duplex assay, 3CLpro and HRV3C was added using a Multidrop Combi (Thermo Scientific; Waltham, MA) and preincubated for 30 mins with small molecules. The reactions were initiated by the addition of the two peptide substrates. The reactions were incubated for 30 mins and quenched by the addition of 0.5% formic acid (final) with subsequent neutralization using 1% sodium bicarbonate (final). Internal standard peptides were added in 20 mM Hepes pH 8.0 for quantitation of the protease products. For SAMDI-MS analysis, 2 μL of each reaction mixture was transferred using a 384-channel automated liquid handler to SAMDI biochip arrays functionalized with a neutravidin-presenting self-assembled monolayer. The SAMDI arrays were incubated for 1 h in a humidified chamber to allow the specific immobilization of the biotinylated peptide substrates, cleaved products and internal standards. The samples were purified by washing the SAMDI arrays with deionized ultrafiltered water and dried with compressed air. A matrix comprising alpha-cyano cinnamic acid in 80% acetonitrile:20% aqueous ammonium citrate was applied in an automated format by dispensing 50 nL to each spot in the array. SAMDI-MS was performed using reflector-positive mode on an AB Sciex TOF-TOF 5800 System (AB Sciex, Framingham, MA) with 400 shots/spot analyzed in a random raster sampling. For data analysis, area under the curves (peaks) (AUCs) for the product and internal standard were calculated using the TOF/TOF Series Explorer (AB Sciex), and the amount of product formed was calculated using the equation (AUC product/AUC internal standard). The amount of product generated was calculated using the ratio of product area under the curve (AUC) divided by the AUC of the internal standard. Negative controls were pre-quenched with 0.5% formic acid final. Assay robustness was determined by Z-Factor. The IC50s were determined by fitting the curves using a four-parameter equation in Graphpad Prism 8.

[4] = Cytotoxicity plates without OC43 virus (cell-titer-glo); assay type: cell-based, human; conditions: human; HeLa cells without OC43 virus, class symbols
Protocol: The human beta-coronavirus OC43 was purchased from ATCC (Manassas, VA) and propagated using HCT-8 human colorectal epithelial cells (ATCC). HeLa human cervical epithelial cells (ATCC) were used as susceptible host cell lines and were cultured using EMEM media, supplemented with 10% fetal bovine serum (FBS), 1% (v/v) penicillin/streptomycin (P/S), 1% (v/v) HEPES and 1% (v/v) Cellgro Glutagro™ supplement (all Corning, Manassas, VA) at 37° C. For the OC43 antiviral assay, 1.5×10^4 HeLa cells per well were plated in 100 μL complete media in white 96-well plates with clear bottoms at 37° C. for up to 24 h to facilitate attachment and allow cells to recover from seeding stresses. Next day, the cell culture medium was removed. Serially diluted compounds in 100 μL assay media (EMEM, 2% FBS, 1% P/S, 1% Cellgro Glutagro™ supplement, 1% HEPES) were added to the cells and incubated for 4H at 37° C. in a humidified 5% CO2 incubator. 100 μL of OC43 virus stock was diluted to a concentration known to produce optimal cytopathic effect, inducing 80-90% reduction in cell viability. 96-well plates were incubated for 6 (HeLa) days at 33° C.; each plate contains uninfected control wells as well as virus-infected wells that were not treated with compound. Cytotoxicity plates without the addition of OC43 virus were carried out in parallel. At the end of the incubation period, 100 μL cell culture supernatant was replaced with 100 μL cell-titer-glo reagent (Promega, Madison, WI) and incubated for at least 10 min at rt prior to measuring luminescence. Luminescence was measured on a Perkin Elmer (Waltham, MA) Envision plate reader. Antiviral % inhibition was calculated as follows: [(Compound treated cells infected sample)−(no compound infected control)]/[(Uninfected control)−(no compound infected control)]*100; Using GraphPad (San Diego, CA) prism software version 8.3.1, the antiviral dose-response plot was generated as a sigmoidal fit, log(inhibitor) vs response-variable slope (four parameters) model and the EC50 was calculated which is the predicted compound concentration corresponding to a 50% inhibition of the viral cytopathic effect.

[5] = biological target: 3CLpro (Severe acute respiratory syndrome coronavirus 2, UniProt P0DTD1); assay: SARS-CoV-2 3CLpro protease assay (duplex, SAMDI-MS); assay type: biochemical; parameters: For the duplex assay, 3CLpro and HRV3C was added; conditions: 3CLpro, 30 mins preincubation, class symbols; read-out: SARS-Cov-2 IC50
[6] = system: SARS-CoV-2-GHB-03021/2020; assay: microbe, parasite or virus in culture; assay type: cell-based; conditions: Severe acute respiratory syndrome coronavirus 2, Vero C1008, 96 h; read-out: VeroE6 + CP (EC50)
[7] = HRV3C, bound, read-out: HRV IC50
[8] = HRV3C, class symbols, read-out: HRV IC50

## COc1cccc2[nH]c(C(=O)N3C[C@H]4CCCC[C@H]4[C@@H]3C(=O)N[C@@H](C[C@@H]3CCCNC3=O)C(=O)COCc3ccccc3)cc12 (single isomer, unassigned) [Compound 59A_2]
[1]
  IC50: ≥ 10 µM
[2]; class symbols
  EC50: 1 to 10 µM
[3]; [7]
  IC50: > 10 µM
[4]
  CC50 at 6 days: > 10 µM
[5]
  IC50: 0.2 to 2 µM

## C=CC[C@@H]1C[C@@H](C(=O)N[C@@H](C[C@@H]2CCNC2=O)C(=O)C(=O)NCc2ccccc2)N(C(=O)c2cc3ccccc3[nH]2)C1 [Compound 21]
[6]
  EC50: 10 to 100 µM
[2]; class symbols
  EC50: 0.1 to 1 µM
[3]; HRV IC50, HRV3C, class symbols
  IC50: 2 to 20 µM
[4]
  CC50 at 6 days: > 10 µM
[5]
  IC50: 0.2 to 2 µM

## COc1cccc2[nH]c(C(=O)N3C[C@@H]4CCCC[C@@H]4[C@H]3C(=O)N[C@@H](C[C@@H]3CCCNC3=O)C(=O)CO)cc12 [Compound 59_1, (1S,3aR,7aS)—N—((S)-4-hydroxy-3-oxo-1-((S)-2-oxopiperidin-3-yl)butan-2-yl)-2-(4-methoxy-1H-indole-2-carbonyl)octahydro-1H-isoindole-1-carboxamide]
[1]
  IC50: ≥ 10 µM
[2]; class symbols
  EC50: 0.1 to 1 µM
[3]; [8]
  IC50: 2 to 20 µM
[4]
  CC50 at 6 days: > 10 µM
[5]
  IC50: < 0.02 µM

## COc1cccc2[nH]c(C(=O)N3C[C@H]4CCCC[C@H]4[C@@H]3C(=O)N[C@@H](C[C@@H]3CCCNC3=O)C(=O)CO)cc12 [Compound 59_2, (1R,3aS,7aR)—N—((S)-4-hydroxy-3-oxo-1-((S)-2-oxopiperidin-3-yl)butan-2-yl)-2-(4-methoxy-1H-indole-2-carbonyl)octahydro-1H-isoindole-1-carboxamide]
[1]
  IC50: ≥ 10 µM
[2]; class symbols
  EC50: 1 to 10 µM
[3]; [7]
  IC50: > 10 µM
[4]
  CC50 at 6 days: > 10 µM
[5]
  IC50: 0.2 to 2 µM

## COc1cccc2[nH]c(C(=O)N3CC4(C5CC5)CC3(C(=O)N[C@@H](C[C@@H]3CCNC3=O)C(=O)C(=O)NC3CC3)C4)cc12 [Compound 131]
[1]
  IC50: ≥ 10 µM
[2]; bound
  EC50: > 10 µM
[3]; [8]
  IC50: 0.02 to 0.2 µM
[4]
  CC50 at 6 days: > 10 µM
[5]
  IC50: 0.02 to 0.2 µM

## N#C[C@H](C[C@@H]1CCNC1=O)NC(=O)[C@@H]1[C@H]2CCC[C@H]2CN1C(=O)c1cc2c(Cl)ccc(C(F)(F)F)c2[nH]1 [Compound 175]
[1]
  IC50: ≥ 10 µM
[2]; class symbols
  EC50: 1 to 10 µM
[3]; [7]
  IC50: > 10 µM
[4]
  CC50 at 6 days: > 10 µM
[5]
  IC50: 0.2 to 2 µM

## COc1ccc(Cl)c2cc(C(=O)N3C[C@@H]4CCC[C@@H]4[C@H]3C(=O)N[C@@H](C[C@@H]3CCNC3=O)C(=O)CO)[nH]c12 [Compound 176]
[1]
  IC50: ≥ 10 µM
[2]; class symbols
  EC50: 0.1 to 1 µM
[3]; [7]
  IC50: > 10 µM
[4]
  CC50 at 6 days: > 10 µM
[5]
  IC50: 0.02 to 0.2 µM

## C#C[C@H](C[C@@H]1CCNC1=O)NC(=O)[C@@H]1[C@H]2CCC[C@H]2CN1C(=O)c1cc2c(Cl)ccc(Cl)c2[nH]1 [Compound 177, (1S,3aR,6aS)-2-(4,7-dichloro-1H-indole-2-carbonyl)-N-[(2S)-1-[(3S)-2-oxopyrrolidin-3-yl]but-3-yn-2-yl]-hexahydro-1H-cyclopenta[c]pyrrole-1-carboxamide]
[1]
  IC50: ≥ 10 µM
[2]; bound
  EC50: > 10 µM
[3]; [7]
  IC50: > 10 µM
[4]
  CC50 at 6 days: > 10 µM
[5]
  IC50: 2 to 20 µM

## COc1cc(F)c(F)c2[nH]c(C(=O)N3C[C@@H]4CCC[C@@H]4[C@H]3C(=O)N[C@@H](C[C@@H]3CCNC3=O)C(=O)CO)cc12 [Compound 184, (1S,3aR,6aS)-2-(6,7-difluoro-4-methoxy-1H-indole-2-carbonyl)-N-[(2S)-4-hydroxy-3-oxo-1-[(3S)-2-oxopyrrolidin-3-yl]butan-2-yl]-hexahydro-1H-cyclopenta[c]pyrrole-1-carboxamide]
[1]
  IC50: ≥ 10 µM
[3]; [8]
  IC50: 2 to 20 µM
[5]
  IC50: < 0.02 µM

## N#C[C@H](C[C@@H]1CCNC1=O)NC(=O)[C@@H]1[C@H]2CCC[C@H]2CN1C(=O)c1cc2c(OC3CC3)cc(Cl)cc2[nH]1 [Compound 185, (1S,3aR,6aS)-2-(6-chloro-4-cyclopropoxy-1H-indole-2-carbonyl)-N-[(1S)-1-cyano-2-[(3S)-2-oxopyrrolidin-3-yl]ethyl]-hexahydro-1H-cyclopenta[c]pyrrole-1-carboxamide]
[1]
  IC50: ≥ 10 µM
[3]; [7]
  IC50: > 10 µM
[5]
  IC50: 0.2 to 2 µM

## N#C[C@H](C[C@@H]1CCNC1=O)NC(=O)[C@@H]1[C@H]2CCC[C@H]2CN1C(=O)c1nc2c(Cl)ccc(Cl)c2[nH]1 [Compound 186]
[1]
  IC50: ≥ 10 µM
[3]; [7]
  IC50: > 10 µM
[5]
  IC50: 0.2 to 2 µM

## N#C[C@H](C[C@@H]1CCNC1=O)NC(=O)[C@@H]1[C@H]2CCC[C@H]2CN1C(=O)c1cc2c(Cl)cc(F)cc2[nH]1 [Compound 187]
[1]
  IC50: ≥ 10 µM
[3]; [7]
  IC50: > 10 µM
[5]
  IC50: 0.2 to 2 µM

## N#C[C@H](C[C@@H]1CCNC1=O)NC(=O)[C@@H]1[C@H]2CCC[C@H]2CN1C(=O)c1cc2c(Cl)cc(Cl)cc2[nH]1 [Compound 188]
[1]
  IC50: ≥ 10 µM
[3]; [7]
  IC50: > 10 µM
[5]
  IC50: 0.2 to 2 µM

## COc1ccc(F)c2[nH]c(C(=O)N3C[C@@H]4CCC[C@@H]4[C@H]3C(=O)N[C@H](C#N)C[C@@H]3CCNC3=O)cc12 [Compound 189]
[1]
  IC50: ≥ 10 µM
[3]; [7]
  IC50: > 10 µM
[5]
  IC50: 0.2 to 2 µM

## N#C[C@H](C[C@@H]1CCNC1=O)NC(=O)[C@@H]1[C@H]2CCC[C@H]2CN1C(=O)c1cc2c(OC(F)F)cccc2[nH]1 [Compound 190]
[1]
  IC50: ≥ 10 µM
[3]; [7]
  IC50: > 10 µM
[5]
  IC50: 0.2 to 2 µM

## COc1nccc2[nH]c(C(=O)N3C[C@@H]4CCC[C@@H]4[C@H]3C(=O)N[C@H](C#N)C[C@@H]3CCNC3=O)cc12 [Compound 191]
[1]
  IC50: ≥ 10 µM
[3]; [7]
  IC50: > 10 µM
[5]
  IC50: 0.2 to 2 µM

## COc1cc(Cl)cc2[nH]c(C(=O)N3C[C@@H]4CCC[C@@H]4[C@H]3C(=O)N[C@H](C#N)C[C@@H]3CCNC3=O)cc12 [Compound 192]
[1]
  IC50: ≥ 10 µM
[3]; [7]
  IC50: > 10 µM
[5]
  IC50: 0.2 to 2 µM

## CCOC(=O)c1cc(C(=O)N2C[C@@H]3CCC[C@@H]3[C@H]2C(=O)N[C@H](C#N)C[C@@H]2CCNC2=O)[nH]c1C [Compound 193]
[1]
  IC50: ≥ 10 µM
[3]; [7]
  IC50: > 10 µM
[5]
  IC50: 0.2 to 2 µM
